# In PMC12150604, “Exploring structure–activity relationships of pyrrolyl diketo acid derivatives as non-nucleoside inhibitors of terminal deoxynucleotidyl transferase enzyme” (Journal of Enzyme Inhibition and Medicinal Chemistry, 2025):
# Where two headings read alike, the source gives them in different places.
# Columns and labels:
# [1] = target: T1, human DNA polymerase λ (Homo sapiens, UniProt Q9UGP5); set-up: method as in PMID 19329428; settings: enzymatic assay; cited from earlier work
# T1 construct: Recombinant full-length human DNA polymerase λ and β were generated and purified as described; made in house
# T1 sequence (Q9UGP5 1-575): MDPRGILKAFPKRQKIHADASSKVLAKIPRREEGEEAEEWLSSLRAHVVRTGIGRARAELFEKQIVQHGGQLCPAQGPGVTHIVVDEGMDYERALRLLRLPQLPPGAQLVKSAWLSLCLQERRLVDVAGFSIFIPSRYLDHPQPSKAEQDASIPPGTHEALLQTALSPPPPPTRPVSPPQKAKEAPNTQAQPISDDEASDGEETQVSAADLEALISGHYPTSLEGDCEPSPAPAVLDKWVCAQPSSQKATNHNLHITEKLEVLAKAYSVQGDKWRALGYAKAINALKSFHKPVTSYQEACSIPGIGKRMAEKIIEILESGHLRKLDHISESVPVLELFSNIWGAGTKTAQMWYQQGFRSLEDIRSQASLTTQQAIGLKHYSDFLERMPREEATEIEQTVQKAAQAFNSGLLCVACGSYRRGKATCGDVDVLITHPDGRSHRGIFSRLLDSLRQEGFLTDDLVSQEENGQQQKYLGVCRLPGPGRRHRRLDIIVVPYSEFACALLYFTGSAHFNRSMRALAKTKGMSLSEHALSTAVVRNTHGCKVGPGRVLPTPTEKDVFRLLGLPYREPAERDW
# [2] = target: T1, human DNA polymerase λ; set-up: method as in PMID 19329428; settings: enzymatic assay; cited from earlier work; remark: listed apart in the source
# [3] = target: T2, human TdT (Homo sapiens, UniProt P04053); assay: Terminal transferase assay, TdT; assay type: biochemical; settings: human TdT
# T2 construct: purchased Trevigen (Gaithersburg, MD)
# T2 sequence (P04053 whole entry): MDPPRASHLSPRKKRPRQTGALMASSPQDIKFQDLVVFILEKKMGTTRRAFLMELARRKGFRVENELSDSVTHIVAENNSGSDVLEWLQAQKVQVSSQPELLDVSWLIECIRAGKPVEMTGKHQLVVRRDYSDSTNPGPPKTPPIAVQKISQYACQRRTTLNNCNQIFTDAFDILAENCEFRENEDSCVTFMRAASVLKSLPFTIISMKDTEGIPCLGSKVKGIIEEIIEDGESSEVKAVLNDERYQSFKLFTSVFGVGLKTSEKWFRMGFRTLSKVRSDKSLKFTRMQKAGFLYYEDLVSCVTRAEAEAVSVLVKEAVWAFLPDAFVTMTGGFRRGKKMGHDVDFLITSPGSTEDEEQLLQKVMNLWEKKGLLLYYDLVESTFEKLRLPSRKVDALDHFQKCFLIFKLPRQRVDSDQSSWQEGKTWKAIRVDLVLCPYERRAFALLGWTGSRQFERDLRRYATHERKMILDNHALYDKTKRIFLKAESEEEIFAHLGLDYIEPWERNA
# Protocol: (§1) Recombinant full-length human DNA polymerase λ and β were generated and purified as described. After purification, the protein was >90% homogeneous, as judged by sodium dodecyl sulphate (SDS)−polyacrylamide gel electrophoresis (PAGE) and Coomassie staining. TdT was from Trevigen (Gaithersburg, MD).
# (§2) Terminal Transferase Assay. DNA polymerase λ and TdT terminal transferase activities were assayed in a final volume of 25 μL containing 50 mM Tris-HCl (pH 7.0), 0.25 mg/mL BSA, 1 mM DTT, 0.2 μM ss 30mer (AAC)10 DNA oligonucleotide, 25 μM [3H]dNTPs (10 Ci/mmol) and 0.5 mM MnCl2 or 5 mM MgCl2 used as cofactors. Terminal transferase activity was monitored in the presence of 10% DMSO or in the presence of increasing amounts of inhibitors dissolved in DMSO. All reactions were incubated for 10 min at 37 °C and the DNA precipitated with 10% trichloroacetic acid. Insoluble radioactive material was determined by scintillation counting using Trilux beta-counter (PerkinElmer) as described.
# (§3) Dose − response curves were generated by computer fitting of the data to the equation E(%) = Emax/(1 + I/ID50) where E(%) is the fraction of enzyme’s activity measured in the presence of the inhibitor, Emax is the activity in the absence of the inhibitor, I is the inhibitor concentration, and ID50 is the inhibitor concentration at which E(%) = 0.5 Emax. ID50 values were generated using GraphPad Prism 6.
# [4] = target: T3, human DNA polymerase β (Homo sapiens, UniProt P06746); set-up: method as in PMID 19329428; settings: enzymatic assay; cited from earlier work
# T3 construct: Recombinant full-length human DNA polymerase λ and β were generated and purified as described; made in house
# [5] = target: T1, human DNA polymerase λ; assay: Polymerase assay, DNA polymerase λ (template-dependent); assay type: biochemical; settings: for pol λ (Pol) Residual activity (%) Mg2+ / pol λ (Pol) Residual activity (%) Mn2+: after treatment 100 mM; for IC50: enzymatic assay, template-dependent polymerase activity, read-out: ID50 pol λ (Pol); for residual polymerase activities: fix concentration of 100 µM, pol λ
# Protocol: as §1
# (§4) Polymerase Assay: Activity of DNA polymerase λ and β were assessed using poly(dA)/oligo(dT)10:1 substrate in a final volume of 25 μL containing 50 mM Tris-HCl (pH 7.0), 0.25 mg/mL BSA, 1 mM, DTT, 0.2 μM poly(dA)/oligo(dT)10:1 (3′-OH ends), 50 nM DNA polymerase λ or β, 5 μM [3H]-2′-deoxythymidine 5′-triphosphate (dTTP) (5 Ci/mmol), and 0.5 mM MnCl2 or 5 mM MgCl2 used as cofactors. The polymerase activity was monitored in the presence of 10% DMSO or in the presence of increasing amounts of inhibitors dissolved in DMSO. All reactions were incubated for 15 min at 37 °C and the DNA precipitated with 10% trichloroacetic acid. Insoluble radioactive material was determined by scintillation counting using Trilux beta-counter (PerkinElmer) as described.
# as §3
# [6] = target: T1, human DNA polymerase λ; assay: Terminal transferase assay, DNA polymerase λ (TdT-like activity); assay type: biochemical; settings: for IC50: enzymatic assay, TdT-like activity of pol λ, read-out: ID50 pol λ (TdT)
# Protocol: as §1, §2, §3
# [7] = target: T3, human DNA polymerase β; assay: Polymerase assay, DNA polymerase β; assay type: biochemical; settings: for pol β Residual activity (%) Mg2+ / pol β Residual activity (%) Mn2+: after treatment 100 mM; for IC50: enzymatic assay, read-out: ID50 pol β; for residual polymerase activities: fix concentration of 100 µM, pol β
# Protocol: as §1, §4, §3
# [8] = tested on: leukaemia cells overexpressing TdT; set-up: method as in PMID 22390204; settings: read-out: cytotoxicity activity IC50; cited from earlier work
# [9] = Mn2+ as cofactor, read-out: ID50 (µM) Mn2+
# [10] = Mg2+ as cofactor, read-out: ID50 (µM) Mg2+
"IC50 [3, 9] [µM]",IC50 [5] [µM],residual polymerase activities [5],IC50 [6] [µM],IC50 [7] [µM],residual polymerase activities [7],"IC50 [3, 10] [µM]",Compound,ID50 pol λ (Pol) [1] [µM],ID50 pol λ (TdT) [2] [µM],ID50 pol β [4] [µM],further results
0.58 ± 0.03,–,–,–,–,–,–,O=C(/C=C(\O)C(=O)O)/C=C/c1cc(C(=O)c2ccc(F)cc2)c[nH]1 [Compound 4],> 40,40 ± 1,> 40,–
>50,–,–,–,–,–,–,"Ethyl 4-(1-(4-fluorobenzyl)-4-phenyl-1H-pyrrol-3-yl)-2,4-dioxobutanoate [Compound 11b]",–,–,–,pol λ (Pol) Residual activity (%) Mg2+ [5]: 70.0%; pol λ (Pol) Residual activity (%) Mn2+ [5]: 94.0%; pol β Residual activity (%) Mg2+ [7]: 60.5%; pol β Residual activity (%) Mn2+ [7]: 88%
0.78 ± 0.04,–,–,–,–,–,–,O=C(/C=C(\O)C(=O)O)/C=C/c1cc(C(=O)c2cccc(F)c2)c[nH]1 [Compound 3],> 40,35 ± 1,> 40,–
9.5 ± 0.1,–,–,–,–,–,–,O=C(/C=C(\O)C(=O)O)/C=C/c1cc(C(=O)c2ccccc2)cn1Cc1ccc(F)cc1 [Compound 2],> 40,> 40,> 40,–
> 50,4.07 ± 0.3,less than 10%,> 100,7.94 ± 0.1,less than 10%,10.5 ± 0.2,CCOC(=O)/C(O)=C/C(=O)/C=C/c1cc(C(=O)c2ccccc2)cn1Cc1ccc(OC)cc1 [Compound 5i],–,–,–,–
–,4.06 ± 0.2,less than 10%,> 100,20 ± 0.4,less than 10%,5.1 ± 0.12,O=C(/C=C(\O)C(=O)O)/C=C/c1cc(C(=O)c2ccccc2)cn1Cc1ccc(Cl)cc1 [Compound 6h],–,–,–,–

# Second part, the compound before the results:
Compound,"IC50 [3, 9] [µM]",IC50 [5] [µM],residual polymerase activities [5],IC50 [6] [µM],IC50 [7] [µM],residual polymerase activities [7],"IC50 [3, 10] [µM]",ID50 pol λ (Pol) [1] [µM],ID50 pol λ (TdT) [2] [µM],ID50 pol β [4] [µM],further results
"4-(1-(4-fluorobenzyl)-4-phenyl-1H-pyrrol-3-yl)-2,4-dioxobutanoic acid [Compound 12b]",10.10,–,–,–,–,–,–,–,–,–,"pol λ (Pol) Residual activity (%) Mg2+ [5]: 74.0%; pol λ (Pol) Residual activity (%) Mn2+ [5]: 79.0%; pol λ (TdT) Residual activity (%) Mn2+ ([6]; after treatment 100 mM, Mn2+): 100%; pol β Residual activity (%) Mg2+ [7]: 51.7%; pol β Residual activity (%) Mn2+ [7]: 82.5%; ID50 (µM) Mn2+ ([3]; Mn2+ as cofactor): 10.10 ± 4.1 µM"
CCOC(=O)/C(O)=C/C(=O)/C=C/c1cc(C(=O)c2ccccc2)cn1Cc1ccc(Cl)cc1 [Compound 5h],> 50,4.08 ± 0.4,less than 10%,> 100,12.4 ± 0.3,less than 10%,17.51 ± 0.12,–,–,–,–
COc1ccc(Cn2cc(C(=O)c3ccccc3)cc2/C=C/C(=O)/C=C(\O)C(=O)O)cc1 [Compound 6i],> 50,4.06 ± 0.1,less than 10%,> 100,14.7 ± 0.8,less than 10%,2.7 ± 0.32,–,–,–,–
O=C(/C=C(\O)C(=O)O)/C=C/c1cc(C(=O)c2ccccc2)cn1Cc1ccccc1 [Compound 1],16 ± 0.5,–,–,–,–,–,–,> 40,20 ± 1,> 40,–
"C#Cc1cn([C@H]2C[C@H](O)[C@@H](COP(=O)(O)OP(=O)(O)OP(=O)(O)O)O2)c2ccc([N+](=O)[O-])cc12 [3-eth-5-NITP, 3-ethynyl-5-nitroindolyl-2′-deoxynucleoside triphosphate]",–,–,–,–,–,–,–,–,–,–,IC50 [8]: 3.9 µM
